The values below come from patent US8207177B2, “Inhibitors of E1 activating enzymes” (Millennium Pharmaceuticals, Inc., priority 2006, dated 2012).

The target of this assay is T1, recombinant human NAE enzyme (Homo sapiens, UniProt Q8TBC4).
T1 construct: His (N); made in house; host or cells: Sf9 insect cells (baculovirus, Bac-to-Bac), purified on Ni-NTA
T1 sequence (Q8TBC4 1-463): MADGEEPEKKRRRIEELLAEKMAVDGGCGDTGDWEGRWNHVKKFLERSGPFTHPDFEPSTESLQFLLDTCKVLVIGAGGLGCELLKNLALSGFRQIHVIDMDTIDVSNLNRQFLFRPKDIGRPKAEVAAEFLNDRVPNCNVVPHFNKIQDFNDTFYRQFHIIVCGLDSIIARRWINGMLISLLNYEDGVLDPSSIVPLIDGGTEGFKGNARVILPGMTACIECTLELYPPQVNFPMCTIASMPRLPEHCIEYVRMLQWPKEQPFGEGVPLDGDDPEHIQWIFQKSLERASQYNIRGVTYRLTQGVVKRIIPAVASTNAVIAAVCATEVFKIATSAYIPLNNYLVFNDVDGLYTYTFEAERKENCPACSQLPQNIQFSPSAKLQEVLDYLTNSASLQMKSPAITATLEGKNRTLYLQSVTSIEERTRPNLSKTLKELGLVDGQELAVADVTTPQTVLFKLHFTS
T1 sequence (Q13564 1-534 partner): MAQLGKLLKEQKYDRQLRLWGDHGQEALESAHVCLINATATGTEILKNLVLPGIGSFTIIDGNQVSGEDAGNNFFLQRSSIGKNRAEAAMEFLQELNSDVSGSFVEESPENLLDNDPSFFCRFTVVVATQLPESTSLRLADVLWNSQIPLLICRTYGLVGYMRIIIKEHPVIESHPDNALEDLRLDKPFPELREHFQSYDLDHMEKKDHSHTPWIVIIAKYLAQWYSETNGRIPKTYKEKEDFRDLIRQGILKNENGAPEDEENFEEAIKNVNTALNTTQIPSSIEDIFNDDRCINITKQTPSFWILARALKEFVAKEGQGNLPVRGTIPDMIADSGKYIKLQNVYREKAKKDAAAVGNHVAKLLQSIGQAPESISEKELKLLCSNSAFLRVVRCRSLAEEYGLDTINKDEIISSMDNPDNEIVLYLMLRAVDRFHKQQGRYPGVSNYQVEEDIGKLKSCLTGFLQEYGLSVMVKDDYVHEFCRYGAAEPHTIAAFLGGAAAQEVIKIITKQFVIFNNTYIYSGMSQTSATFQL
Kind of assay: Nedd8-Activating Enzyme (NAE) HTRF Assay. Format: biochemical. The following applies: threshold statement: less than or equal to 100 nM; 20 μM ATP, 90 minutes at 24° C. The essentials:
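Sf9-expressed NAEα/His-NAEβ complex (0.28 nM) with 0.075 μM Nedd8-Flag, 0.01 μM Ubc12-GST, 20 μM ATP in 50 mM HEPES pH 7.5, 5 mM MgCl2, 250 μM GSH, 0.05% BSA; 90 min at 24 °C. EDTA stop, then Eu-cryptate anti-FLAG/XL-APC anti-GST detection for 3 h at 24 °C, HTRF read-out.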
In general terms: Time-resolved FRET reads energy transfer from a long-lived donor to a nearby acceptor.

Take `NS(=O)(=O)OC[C@@H]1C[C@@H](n2ccc3c(N[C@H]4CCc5cc(Cl)ccc54)ncnc32)C[C@@H]1O` [Compound I-27, [(1S,2S,4R)-4-(4-}[(1S)-5-chloro-2,3-dihydro-1H-inden-1-yl]amino}-7H-pyrrolo-[2,3-d]pyrimidin-7-yl)-2-hydroxycyclopentyl]methyl sulfamate]: the IC50 is no more than 100 nM. The result for `NS(=O)(=O)OC[C@@H]1C[C@@H](n2ccc3c(N[C@H]4CCc5c(Cl)cccc54)ncnc32)C[C@@H]1O` [Compound I-64, [(1S,2S,4R)-4-(4-{[(1S)-4-chloro-2,3-dihydro-1H-inden-1-yl]amino}-7H-pyrrolo[2,3-d]pyrimidin-7-yl)-2-hydroxycyclopentyl]methyl sulfamate] reads no more than 100 nM; that for `NS(=O)(=O)OC[C@@H]1C[C@@H](n2ccc3c(NCc4ccc(Cl)c(Cl)c4)ncnc32)C[C@@H]1O` [Compound I-24, ((1S,2S,4R)-4-{4-[(3,4-dichlorobenzyl)amino]-7H-pyrrolo[2,3-d]pyrimidin-7-yl}-2-hydroxycyclopentyl)methyl sulfamate], no more than 100 nM. The result for `NS(=O)(=O)OC[C@@H]1C[C@@H](n2ccc3c(NCc4ccccc4)ncnc32)C[C@@H]1O` [Compound I-49, {(1S,2S,4R)-4-[4-(benzylamino)-7H-pyrrolo[2,3-d]pyrimidin-7-yl]-2-hydroxycyclopentyl}methyl sulfamate] reads no more than 100 nM; that for `NS(=O)(=O)OC[C@@H]1C[C@@H](n2ccc3c(NCc4ccc(C(F)(F)F)cc4)ncnc32)C[C@@H]1O` [Compound I-8, [(1S,2S,4R)-2-hydroxy-4-(4-{[4-(trifluoromethyl)benzyl]amino}-7H-pyrrolo-[2,3-d]pyrimidin-7-yl)cyclopentyl]methyl sulfamate], no more than 100 nM. For `NS(=O)(=O)OC[C@@H]1C[C@@H](n2ccc3c(NCc4ccc5c(c4)OCO5)ncnc32)C[C@@H]1O` [Compound I-26, ((1S,2S,4R)-4-{4-[(1,3-benzodioxol-5-ylmethyl)amino]-7H-pyrrolo[2,3-d]-pyrimidin-7-yl}-2-hydroxycyclopentyl)methyl sulfamate], the IC50 is no more than 100 nM. In the case of `NS(=O)(=O)OC[C@@H]1C[C@@H](n2ccc3c(NCc4c(F)cccc4F)ncnc32)C[C@@H]1O` [Compound I-15, ((1S,2S,4R)-4-{4-[(2,6-dif1uorobenzyl)amino]-7H-pyrrolo[2,3-d]pyrimidin-7-yl}-2-hydroxycyclopentyl)methyl sulfamate] it was no more than 100 nM; in that of `NS(=O)(=O)OC[C@@H]1C[C@@H](n2ccc3c(OCc4ccc(Cl)cc4)ncnc32)C[C@@H]1O` [Compound I-34, ((1S,2S,4R)-4-{4-[(4-chlorobenzyl)oxy]-7H-pyrrolo[2,3-d]pyrimidin-7-yl}-2-hydroxycyclopentyl)methyl sulfamate], no more than 100 nM; in that of `C#Cc1cn([C@@H]2C[C@@H](COS(N)(=O)=O)[C@@H](O)C2)c2ncnc(C)c12` [Compound I-44, [(1S,2S,4R)-4-(5-ethynyl-4-methyl-7H-pyrrolo[2,3-d]pyrimidin-7-yl)-2-hydroxycyclopentyl]methyl sulfamate], no more than 100 nM.

`NS(=O)(=O)OC[C@@H]1C[C@@H](n2ccc3c(N[C@H]4CCOc5ccccc54)ncnc32)C[C@@H]1O` [Compound I-12, ((1S,2S,4R)-4-{4-[(4S)-3,4-dihydro-2H-chromen-4-ylamino]-7H-pyrrolo[2,3-d]-pyrimidin-7-yl}-2-hydroxycyclopentyl)methyl sulfamate]: the IC50 was no more than 100 nM. The result for `COc1ccccc1CNc1ncnc2c1ccn2[C@@H]1C[C@@H](COS(N)(=O)=O)[C@@H](O)C1` [Compound I-43, ((1S,2S,4R)-2-hydroxy-4-{4-[(2-methoxybenzyl)amino]-7H-pyrrolo[2,3-d]-pyrimidin-7-yl)cyclopentyl)methyl sulfamate] reads no more than 100 nM; that for `NS(=O)(=O)OC[C@@H]1C[C@@H](n2ccc3c(NCC4CCCCC4)ncnc32)C[C@@H]1O` [Compound I-29, ((1S,2S,4R)-4-{4-[(cyclohexylmethyl)amino]-7H-pyrrolo[2,3-d]pyrimidin-7-yl)-2-hydroxycyclopentyl)methyl sulfamate], no more than 100 nM; that for `NS(=O)(=O)OC[C@@H]1C[C@@H](n2ccc3c(NCc4ccccc4Cl)ncnc32)C[C@@H]1O` [Compound I-1, ((1S,2S,4R)-4-{4-[(2-chlorobenzyl)amino]-7H-pyrrolo[2,3-d]pyrimidin-7-yl}-2-hydroxycyclopentyl)methyl sulfamate], no more than 100 nM.

What is called IC50 is the concentration at which inhibition is half-maximal.
